Experimental data as given in US20070128217A1 (priority 2003, published 2007).

Columns and labels:
[1] = test system: antibodies in sera from SARS patients (sera 1a, 1b, 2, 6, 37, 62, London, SARS-yellow, SARS-green); format: binding, human; set-up: Binding of serum 6 to linear peptides of protein X1 of SARS-CoV Urbani / Binding of serum 37 to linear peptides of protein X1 of SARS-CoV Urbani / Binding of serum 6 to looped/cyclic peptide (PEPSCAN-ELISA) / Binding of serum 37 to looped/cyclic peptide (PEPSCAN-ELISA) / Binding of serum 37 to looped/cyclic peptides of protein X1 of SARS-CoV Urbani / Binding of serum 6 to linear peptides of protein X2 / Binding of serum 37 to linear peptides of protein X2 / Binding of serum 37 to looped/cyclic peptides of protein X2 of SARS-CoV Urbani / Binding of serum 6 to linear peptides of protein M of SARS-CoV Urbani / Binding of serum 37 to linear peptides of protein M of SARS-CoV Urbani / Binding of serum 6 to looped/cyclic peptides of protein M of SARS-CoV Urbani / Binding of serum 37 to looped/cyclic peptides of protein M of SARS-CoV Urbani / Binding of serum 6 to linear peptides of protein X3 of SARS-CoV Urbani / Binding of serum 37 to linear peptides of protein X3 of SARS-CoV Urbani / Binding of serum 37 to looped/cyclic peptides of protein X3 of SARS-CoV Urbani / Binding of serum 6 to linear peptides of protein X4 of SARS-CoV Urbani / Binding of serum 37 to linear peptides of protein X4 of SARS-CoV Urbani / Binding of serum 37 to looped/cyclic peptides of protein X4 of SARS-CoV Urbani / Binding of serum 6 to linear peptides of protein X5 of SARS-CoV Urbani / Binding of serum 37 to linear peptides of protein X5 of SARS-CoV Urbani / Binding of serum 37 to looped/cyclic peptides of protein X5 of SARS-CoV Urbani / Binding of serum 6 to linear peptides of protein N of SARS-CoV Urbani / Binding of serum 37 to linear peptides of protein N of SARS-CoV Urbani / Binding of serum 6 to linear peptide (PEPSCAN-ELISA) / Binding of serum 1a to looped/cyclic peptides of protein N of SARS-CoV Urbani / Binding of serum 1b to looped/cyclic peptides of protein N of SARS-CoV Urbani / Binding of serum 2 to looped/cyclic peptides of protein N of SARS-CoV Urbani / Binding of serum 6 to looped/cyclic peptides of protein N of SARS-CoV Urbani / Binding of serum 37 to looped/cyclic peptides of protein N of SARS-CoV Urbani / Binding of serum 62 to looped/cyclic peptides of protein N of SARS-CoV Urbani / Binding of serum London to looped/cyclic peptides of protein N of SARS-CoV Urbani / Binding of serum SARS-green to looped/cyclic peptides of protein N of SARS-CoV Urbani: unit not given here
[2] = test system: control sera (pooled serum of ten healthy LUMC hospital workers; commercial negative donor pooled serum from the Dutch bloodbank); format: binding, human; set-up: Binding of Control serum LUMC to linear peptides / Binding of Control serum Blood-bank to linear peptides / Binding of Control serum LUMC to looped peptides / Binding of Control Serum Blood-Bank to Looped peptides / Binding of Control serum LUMC to linear peptides of the protein M of SARS-CoV Urbani / Binding of Control serum Blood-bank to linear peptides of the protein M of SARS-CoV Urbani / Binding of Control serum LUMC to looped peptides of the protein M of SARS-CoV Urbani / Binding of Control Serum Blood-Bank to Looped peptides of the protein M of SARS-CoV Urbani: unit not given here
[3] = test system: rabbit serum obtained by immunizing a rabbit with the SARS-CoV strain Frankfurt 1; format: binding; set-up: Binding of a rabbit serum to linear peptides / Binding of a rabbit serum to looped peptides / Rabbit serum linear peptides / Rabbit serum looped peptides / Binding of a rabbit serum to linear peptides of protein N of SARS-CoV Urbani (Rabbit serum linear peptides) / Binding of a rabbit serum to looped/cyclic peptides of protein N of SARS-CoV Urbani (Rabbit serum looped peptides): unit not given here
[4] = test system: recombinant human anti-SARS-CoV antibody 03-018; format: binding; set-up: Binding of antibody 03-018 to linear peptides of the N protein of SARS-CoV Urbani / Binding of antibody 03-018 to looped/cyclic peptides of the N protein of SARS-CoV Urbani: unit not given here

## SSRGNSPARMASGGG
[1]
  Binding of serum 1a to linear peptide (PEPSCAN-ELISA): 0.4
  Binding of serum 1a to looped/cyclic peptides of protein N of SARS-CoV Urbani: 0.4
  Binding of serum 1b to linear peptide (PEPSCAN-ELISA): 0.3
  Binding of serum 1b to looped/cyclic peptides of protein N of SARS-CoV Urbani: 0.2
  Binding of serum 2 to linear peptide (PEPSCAN-ELISA): 0.2
  Binding of serum 2 to looped/cyclic peptides of protein N of SARS-CoV Urbani: 0.5
  Binding of serum 6 to linear peptide (PEPSCAN-ELISA): 0.2
  Binding of serum 6 to looped/cyclic peptides of protein N of SARS-CoV Urbani: 0.4
  Binding of serum 37 to linear peptide (PEPSCAN-ELISA): 0.5
  Binding of serum 37 to looped/cyclic peptides of protein N of SARS-CoV Urbani: 0.4
  Binding of serum 62 to linear peptide (PEPSCAN-ELISA): 0.6
  Binding of serum 62 to looped/cyclic peptides of protein N of SARS-CoV Urbani: 0.5
  Binding of serum London to linear peptide (PEPSCAN-ELISA): 0.5
  Binding of serum London to looped/cyclic peptides of protein N of SARS-CoV Urbani: 0.8
  Binding of serum SARS-green to linear peptide (PEPSCAN-ELISA): 1.0
  Binding of serum SARS-green to looped/cyclic peptides of protein N of SARS-CoV Urbani: 0.6
  Binding of serum SARS-yellow to linear peptide (PEPSCAN-ELISA): 0.7
  Binding of serum SARS-yellow to looped/cyclic peptides of protein N of SARS-CoV Urbani: 0.5
[2]
  Binding of Control Serum Blood-Bank to Looped peptides: 0.8
  Binding of Control serum Blood-bank to linear peptides: 0.8
  Binding of Control serum LUMC to linear peptides: 0.9
  Binding of Control serum LUMC to looped peptides: 0.9
[3]
  Binding of a rabbit serum to linear peptides of protein N of SARS-CoV Urbani (Rabbit serum linear peptides): 0.2
  Binding of a rabbit serum to looped/cyclic peptides of protein N of SARS-CoV Urbani (Rabbit serum looped peptides): 0.0
[4]
  Binding of antibody 03-018 to linear peptides of the N protein of SARS-CoV Urbani: 0.1
  Binding of antibody 03-018 to looped/cyclic peptides of the N protein of SARS-CoV Urbani: 0.2

## LPNNTASWFTALTQH
[1]
  Binding of serum 1a to linear peptides of protein N of SARS-CoV Urbani: 0.2
  Binding of serum 1a to looped/cyclic peptides of protein N of SARS-CoV Urbani: 0.4
  Binding of serum 1b to linear peptides of protein N of SARS-CoV Urbani: 0.1
  Binding of serum 1b to looped/cyclic peptides of protein N of SARS-CoV Urbani: 0.3
  Binding of serum 2 to linear peptides of protein N of SARS-CoV Urbani: 0.2
  Binding of serum 2 to looped/cyclic peptides of protein N of SARS-CoV Urbani: 0.4
  Binding of serum 6 to linear peptides of protein N of SARS-CoV Urbani: 0.1
  Binding of serum 6 to looped/cyclic peptides of protein N of SARS-CoV Urbani: 0.3
  Binding of serum 37 to linear peptides of protein N of SARS-CoV Urbani: 0.7
  Binding of serum 37 to looped/cyclic peptides of protein N of SARS-CoV Urbani: 0.8
  Binding of serum 62 to linear peptides of protein N of SARS-CoV Urbani: 0.7
  Binding of serum 62 to looped/cyclic peptides of protein N of SARS-CoV Urbani: 0.7
  Binding of serum London to linear peptides of protein N of SARS-CoV Urbani: 0.4
  Binding of serum London to looped/cyclic peptides of protein N of SARS-CoV Urbani: 0.3
  Binding of serum SARS-green to linear peptides of protein N of SARS-CoV Urbani: 0.3
  Binding of serum SARS-green to looped/cyclic peptides of protein N of SARS-CoV Urbani: 0.7
  Binding of serum SARS-yellow to linear peptides of protein N of SARS-CoV Urbani: 0.5
  Binding of serum SARS-yellow to looped/cyclic peptides of protein N of SARS-CoV Urbani: 0.7
[2]
  Binding of Control Serum Blood-Bank to Looped peptides: 0.8
  Binding of Control serum Blood-bank to linear peptides: 0.7
  Binding of Control serum LUMC to linear peptides: 0.7
  Binding of Control serum LUMC to looped peptides: 0.7
[3]
  Binding of a rabbit serum to linear peptides of protein N of SARS-CoV Urbani (Rabbit serum linear peptides): 0.1
  Binding of a rabbit serum to looped/cyclic peptides of protein N of SARS-CoV Urbani (Rabbit serum looped peptides): 0.6
[4]
  Binding of antibody 03-018 to linear peptides of the N protein of SARS-CoV Urbani: 0.1
  Binding of antibody 03-018 to looped/cyclic peptides of the N protein of SARS-CoV Urbani: 0.3

## KDNVILLNKHIDAYK
[1]
  Binding of serum 1a to linear peptides of protein N of SARS-CoV Urbani: 0.3
  Binding of serum 1a to looped/cyclic peptides of protein N of SARS-CoV Urbani: 0.3
  Binding of serum 1b to linear peptides of protein N of SARS-CoV Urbani: 0.2
  Binding of serum 1b to looped/cyclic peptides of protein N of SARS-CoV Urbani: 0.2
  Binding of serum 2 to linear peptides of protein N of SARS-CoV Urbani: 0.3
  Binding of serum 2 to looped/cyclic peptides of protein N of SARS-CoV Urbani: 0.2
  Binding of serum 6 to linear peptides of protein N of SARS-CoV Urbani: 0.3
  Binding of serum 6 to looped/cyclic peptides of protein N of SARS-CoV Urbani: 0.1
  Binding of serum 37 to linear peptides of protein N of SARS-CoV Urbani: 0.7
  Binding of serum 37 to looped/cyclic peptides of protein N of SARS-CoV Urbani: 0.4
  Binding of serum 62 to linear peptides of protein N of SARS-CoV Urbani: 0.8
  Binding of serum 62 to looped/cyclic peptides of protein N of SARS-CoV Urbani: 0.3
  Binding of serum London to linear peptides of protein N of SARS-CoV Urbani: 0.6
  Binding of serum London to looped/cyclic peptides of protein N of SARS-CoV Urbani: 0.3
  Binding of serum SARS-green to linear peptides of protein N of SARS-CoV Urbani: 0.4
  Binding of serum SARS-green to looped/cyclic peptides of protein N of SARS-CoV Urbani: 0.1
  Binding of serum SARS-yellow to linear peptides of protein N of SARS-CoV Urbani: 0.8
  Binding of serum SARS-yellow to looped/cyclic peptides of protein N of SARS-CoV Urbani: 0.4
[2]
  Control Serum Blood-Bank Looped peptides: 0.5
  Control serum Blood-bank linear peptides: 0.8
  Control serum LUMC linear peptides: 0.7
  Control serum LUMC looped peptides: 0.5
[3]
  Binding of a rabbit serum to linear peptides of protein N of SARS-CoV Urbani (Rabbit serum linear peptides): 0.2
  Binding of a rabbit serum to looped/cyclic peptides of protein N of SARS-CoV Urbani (Rabbit serum looped peptides): 0.4
[4]
  Binding of antibody 03-018 to linear peptides of the N protein of SARS-CoV Urbani: 0.1
  Binding of antibody 03-018 to looped/cyclic peptides of the N protein of SARS-CoV Urbani: 0.2

## LDRLNQLESKVSGKG
[1]
  Binding of serum 1a to linear peptide (PEPSCAN-ELISA): 0.3
  Binding of serum 1a to looped/cyclic peptides of protein N of SARS-CoV Urbani: 0.4
  Binding of serum 1b to linear peptide (PEPSCAN-ELISA): 0.2
  Binding of serum 1b to looped/cyclic peptides of protein N of SARS-CoV Urbani: 0.3
  Binding of serum 2 to linear peptide (PEPSCAN-ELISA): 0.3
  Binding of serum 2 to looped/cyclic peptides of protein N of SARS-CoV Urbani: 0.4
  Binding of serum 6 to linear peptide (PEPSCAN-ELISA): 0.3
  Binding of serum 6 to looped/cyclic peptides of protein N of SARS-CoV Urbani: 0.3
  Binding of serum 37 to linear peptide (PEPSCAN-ELISA): 0.5
  Binding of serum 37 to looped/cyclic peptides of protein N of SARS-CoV Urbani: 0.4
  Binding of serum 62 to linear peptide (PEPSCAN-ELISA): 0.6
  Binding of serum 62 to looped/cyclic peptides of protein N of SARS-CoV Urbani: 0.4
  Binding of serum London to linear peptide (PEPSCAN-ELISA): 0.5
  Binding of serum London to looped/cyclic peptides of protein N of SARS-CoV Urbani: 0.4
  Binding of serum SARS-green to linear peptide (PEPSCAN-ELISA): 0.8
  Binding of serum SARS-green to looped/cyclic peptides of protein N of SARS-CoV Urbani: 0.2
  Binding of serum SARS-yellow to linear peptide (PEPSCAN-ELISA): 0.7
  Binding of serum SARS-yellow to looped/cyclic peptides of protein N of SARS-CoV Urbani: 0.3
[2]
  Binding of Control Serum Blood-Bank to Looped peptides: 0.5
  Binding of Control serum Blood-bank to linear peptides: 1.0
  Binding of Control serum LUMC to linear peptides: 0.8
  Binding of Control serum LUMC to looped peptides: 0.5
[3]
  Binding of a rabbit serum to linear peptides of protein N of SARS-CoV Urbani (Rabbit serum linear peptides): 0.0
  Binding of a rabbit serum to looped/cyclic peptides of protein N of SARS-CoV Urbani (Rabbit serum looped peptides): 0.4
[4]
  Binding of antibody 03-018 to linear peptides of the N protein of SARS-CoV Urbani: 0.1
  Binding of antibody 03-018 to looped/cyclic peptides of the N protein of SARS-CoV Urbani: 0.2
